From patent US20130225627A1, “DEXTROMETHORPHAN ANTITUSSIVE COMPOSITIONS” (Trinity Laboratories, Inc., priority 2010, published 2013)
Counter-ions that a name gives are not always drawn. Like-named read-outs stand apart in the source and are kept apart here.

Assays:
rats [1] = conditions: cited from earlier work
[2] = after oral ingestion; cited from earlier work
rats [3] = test system: rats
females = conditions: cited from earlier work; for mean plasma bromide concentration at the end of the treatment: three menstrual cycles
[4] = in vivo; cited from earlier work
[5] = Ames test; cited from earlier work
[6] = rats, cited from earlier work
[7] = cited from earlier work
[8] = Solubility of dextromethorphan hydrochloride in water; conditions: at the pH of the compositions of the present invention
Excerpt: However, the compositions of the invention may contain sufficient levels of one or more cosolvents. Preferred cosolvents for this purpose include ethanol, propylene glycol, polyethylene glycol, glycerin, and sorbitol; more preferred cosolvents include ethanol, propylene glycol and glycerin.

thyroid gland = conditions: rats, diets containing 4800 or 19200 ppm NaBr; as soon as 3 days, constant during 12 weeks; cited from earlier work
rats [9] = conditions: cited from earlier work; remark: listed apart in the source
healthy volunteers = conditions: cited from earlier work

Br [Bromide]
central nervous system effects (rats [1]; short-term toxicity studies, higher doses): motor incoordination of the hind legs and inhibition of grooming
absorption in the gastrointestinal tract [2]: rapidly and completely absorbed
No Observable Adverse Effect Level (NOAEL), effects on the thyroid (rats [3]; equivalent daily dose): 12 mg bromide/kg/day
No Observable Adverse Effect Level (NOAEL), effects on the thyroid (rats [3]; expressed as bromide): 240 ppm
mean plasma bromide concentration at the end of the treatment (females; 4 mg Br/kg/day): 3.22 mmol/L
mean plasma bromide concentration at the end of the treatment (females; 9 mg Br/kg/day): 7.99 mmol/L
quantitative analysis of the electroencephalogram (EEG) (females; 9 mg Br/kg/day): only a marginal effect
clinical observation: effects on the thyroid or on the central nervous system (females; 4 and 9 mg Br/kg/day): did not show effects
serum thyroxine, free thyroxine, triiodothyronine, thyrotropin and thyroxine-binding globulin (females; 4 and 9 mg Br/kg/day): In none of the three groups were significant changes observed
half life [4]: 9 to 12 days
mutagenicity [5]: not mutagenic
half-life ([6]; chloride-free diet): 25 days
half-life ([6]; normal): three

COc1ccc2c(c1)[C@]13CCCC[C@@H]1[C@H](C2)N(C)CC3 [Dextromethorphan Hydrobromide]
solubility ([7]; at 20° C.): about 1.5 weight percent
solubility ([7]; at 85° C.): about 25 wt. %

COc1ccc2c(c1)[C@]13CCCC[C@@H]1[C@H](C2)N(C)CC3 [Dextromethorphan hydrochloride]
solubility in water [8]: highly soluble

[Br-].[Na+] [sodium bromide]
thyroxine concentrations (thyroid gland): significantly decreased
No Observable Adverse Effect Level (NOAEL), effects on the thyroid (rats [1]; expressed as sodium bromide): 300 ppm
levels of thyroxine, growth hormone, testosterone and corticosterone (rats [1]; special studies): decreased levels
thyroid-stimulating hormone (TSH) and insulin (rats [1]; special studies): increased
effects on reproduction (rats [9]; 1200 ppm): no effects on reproduction were observed
fertility and viability of the offspring (rats [9]; 4800 ppm): reduced
fertility (rats [9]; 19200 ppm sodium bromide, reversible): complete infertility
neurophysiological data (EEG and visual evoked response) (healthy volunteers; 9 mg Br/kg/day, within normal limits): shifts in the power of various spectral bands and a shift in mean frequency
medical history, physical examination, haematology, clinical chemistry and urine analyses (healthy volunteers; 4 or 9 mg Br/kg/day, start versus end of study): Except for incidental nausea, no changes were observed
serum free thyroxine, thyroxine-binding globulin, cortisol, oestradiol, progesterone, testosterone, thyrotropin, prolactin, LH, FSH (healthy volunteers; 4 or 9 mg Br/kg/day): No changes were observed
mean plasma bromide concentration at the end of treatment (healthy volunteers; females, 4 mg Br/kg/day oral, three full cycles): 3.05 mmol/L
mean plasma bromide concentration at the end of treatment (healthy volunteers; females, 9 mg Br/kg/day oral, three full cycles): 4.93 mmol/L
serum thyroxine and triiodothyronine at the end of the study compared to pre-administration values (healthy volunteers; females, 9 mg Br/kg/day, all concentrations within normal limits): significant increase
mean plasma bromide concentration at the end of treatment (healthy volunteers; males, 4 mg Br/kg/day oral, 12 weeks): 2.14 millimoles/liter
mean plasma bromide concentration at the end of treatment (healthy volunteers; males, 9 mg Br/kg/day oral, 12 weeks): 4.30 millimoles/liter
